According to patent US20110118262A1, “Pyrrolidinyl and Piperidinyl Compounds Useful as NHE-1 Inhibitiors” (BOEHRINGER INGELHEIM INTERNATIONAL GMBH, priority 2008, published 2011):

target: T1, NHE-1 (Homo sapiens, UniProt P19634); assay: Evaluation of NHE-1 Inhibition (pHi) in HT-29 cells; type: cell-based; settings: BCECF dye, 50% inhibition of the intracellular pH recovery, read-out: NHE1 HT29 pHi IC50
T1 construct: endogenous in cells; host or cells: HT-29
Procedure, shortened: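 Intracellular pH measured with BCECF in HT-29 cells after 24 h culture. Cells dye-loaded 30 min at 37° C, then acid-loaded with NH4Cl-containing choline buffer (pH 7.5) for 30 min at RT. Compounds added on an FDSS6000 fluorescence reader.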

T1 sequence (P19634 whole entry): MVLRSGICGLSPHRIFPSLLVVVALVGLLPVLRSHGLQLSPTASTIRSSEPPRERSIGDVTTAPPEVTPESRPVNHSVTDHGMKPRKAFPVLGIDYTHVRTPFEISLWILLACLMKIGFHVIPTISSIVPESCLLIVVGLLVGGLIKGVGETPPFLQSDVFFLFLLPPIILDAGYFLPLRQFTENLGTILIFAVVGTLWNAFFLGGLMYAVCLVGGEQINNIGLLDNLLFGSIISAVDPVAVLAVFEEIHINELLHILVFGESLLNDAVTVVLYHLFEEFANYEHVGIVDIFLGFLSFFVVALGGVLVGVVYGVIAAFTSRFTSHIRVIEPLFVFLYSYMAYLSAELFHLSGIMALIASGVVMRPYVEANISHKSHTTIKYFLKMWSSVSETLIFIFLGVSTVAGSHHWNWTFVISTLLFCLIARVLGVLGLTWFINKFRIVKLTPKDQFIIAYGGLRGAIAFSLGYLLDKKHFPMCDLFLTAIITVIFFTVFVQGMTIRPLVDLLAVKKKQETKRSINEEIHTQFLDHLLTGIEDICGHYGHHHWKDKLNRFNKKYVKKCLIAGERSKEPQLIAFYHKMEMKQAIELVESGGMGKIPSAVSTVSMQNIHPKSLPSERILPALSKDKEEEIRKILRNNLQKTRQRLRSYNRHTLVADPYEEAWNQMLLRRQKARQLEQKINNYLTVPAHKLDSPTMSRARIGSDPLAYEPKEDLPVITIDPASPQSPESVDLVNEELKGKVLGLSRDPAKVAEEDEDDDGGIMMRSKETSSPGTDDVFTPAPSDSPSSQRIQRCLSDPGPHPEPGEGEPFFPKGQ

| Compound | IC50 |
| --- | --- |
| N=C(N)NC(=O)c1ccc(C2CCN(C(=O)c3ccc(-c4cnco4)cc3)CC2)c(C(F)(F)F)c1 [N-{4-[1-(4-Oxazol-5-yl-benzoyl)-piperidin-4-yl]-3-trifluoromethyl-benzoyl}-guanidine] | 109 nM |
| N=C(N)NC(=O)c1ccc(C2CCN(C(=O)c3ccc(-n4cccn4)cc3)CC2)c(C(F)(F)F)c1 [N-{4-[1-(4-Pyrazol-1-yl-benzoyl)-piperidin-4-yl]-3-trifluoromethyl-benzoyl}-guanidine] | 88 nM |
| N=C(N)NC(=O)c1ccc(C2CCN(C(=O)c3ccc(N4CCCC4)cc3)CC2)c(C(F)(F)F)c1 [N-{4-[1-(4-Pyrrolidin-1-yl-benzoyl)-piperidin-4-yl]-3-trifluoromethyl-benzoyl}-guanidine] | 250 nM |
| N=C(N)NC(=O)c1ccc(C2CCN(C(=O)c3ccc(S(=O)(=O)C(F)(F)F)cc3)CC2)c(C(F)(F)F)c1 [N-{4-[1-(4-Trifluoromethanesulfonyl-benzoyl)-piperidin-4-yl]-3-trifluoromethyl-benzoyl}-guanidine] | 230 nM |
| N=C(N)NC(=O)c1ccc(C2CCN(C(=O)c3cncc(-c4ccccc4)c3)CC2)c(C(F)(F)F)c1 [N-{4-[1-(5-Phenyl-pyridine-3-carbonyl)-piperidin-4-yl]-3-trifluoromethyl-benzoyl}-guanidine] | 204 nM |
| COc1ccc2cc(C(=O)N3CCC(c4ccc(C(=O)NC(=N)N)cc4C(F)(F)F)CC3)ccc2c1 [N-{4-[1-(6-Methoxy-naphthalene-2-carbonyl)-piperidin-4-yl]-3-trifluoromethyl-benzoyl}-guanidine] | 390 nM |
| COc1ccc(C(=O)N2CCC(c3ccc(C(=O)NC(=N)N)cc3C(F)(F)F)CC2)cn1 [N-{4-[1-(6-Methoxy-pyridine-3-carbonyl)-piperidin-4-yl]-3-trifluoromethyl-benzoyl}-guanidine] | 58 nM |
| N=C(N)NC(=O)c1ccc(C2CCN(C(=O)c3ccc(-n4cccn4)nc3)CC2)c(C(F)(F)F)c1 [N-{4-[1-(6-Pyrazol-1-yl-pyridine-3-carbonyl)-piperidin-4-yl]-3-trifluoromethyl-benzoyl}-guanidine] | 92 nM |
| N=C(N)NC(=O)c1ccc(C2CCN(C(=O)c3ccc(N4CCCC4)nc3)CC2)c(C(F)(F)F)c1 [N-{4-[1-(6-Pyrrolidin-1-yl-pyridine-3-carbonyl)-piperidin-4-yl]-3-trifluoromethyl-benzoyl}-guanidine] | 75 nM |
| N=C(N)NC(=O)c1ccc(C2CCN(C(=O)c3ccc4ncsc4c3)CC2)c(C(F)(F)F)c1 [N-{4-[1-(Benzothiazole-6-carbonyl)-piperidin-4-yl]-3-trifluoromethyl-benzoyl}-guanidine] | 114 nM |
| N=C(N)NC(=O)c1ccc(C2CCN(C(=O)c3ccco3)CC2)c(C(F)(F)F)c1 [N-{4-[1-(Furan-2-carbonyl)-piperidin-4-yl]-3-trifluoromethyl-benzoyl}-guanidine] | 55 nM |
| N=C(N)NC(=O)c1ccc(C2CCN(C(=O)c3cccc4ccccc34)CC2)c(C(F)(F)F)c1 [N-{4-[1-(Naphthalene-1-carbonyl)-piperidin-4-yl]-3-trifluoromethyl-benzoyl}-guanidine] | 260 nM |
| N=C(N)NC(=O)c1ccc(C2CCN(C(=O)c3cnc4ccccc4c3)CC2)c(C(F)(F)F)c1 [N-{4-[1-(Quinoline-3-carbonyl)-piperidin-4-yl]-3-trifluoromethyl-benzoyl}-guanidine] | 70 nM |
| N=C(N)NC(=O)c1ccc(C2CCN(C(=O)c3ccc4ncccc4c3)CC2)c(C(F)(F)F)c1 [N-{4-[1-(Quinoline-6-carbonyl)-piperidin-4-yl]-3-trifluoromethyl-benzoyl}-guanidine] | 64 nM |
| N=C(N)NC(=O)c1ccc(C2CCN(C(=O)C3CCOCC3)CC2)c(C(F)(F)F)c1 [N-{4-[1-(Tetrahydro-pyran-4-carbonyl)-piperidin-4-yl]-3-trifluoromethyl-benzoyl}-guanidine] | 61 nM |
| Cc1cc(C2CCN(C(=O)c3cccc(C(F)(F)F)c3)CC2)c(S(C)(=O)=O)cc1C(=O)NC(=N)N [N-{5-methanesulfonyl-2-methyl-4-[1-(3-trifluoromethyl-benzoyl)-piperidin-4-yl]-benzoyl}-guanidine] | 51 nM |

The next compounds have a lower IC50 than those just listed; values first:

| IC50 | Compound |
| --- | --- |
| 47 nM | CN1CCOc2cc(C(=O)N3CCC(c4ccc(C(=O)NC(=N)N)cc4C(F)(F)F)CC3)ccc21 [N-{4-[1-(4-Methyl-3,4-dihydro-2H-benzo[1,4]oxazine-7-carbonyl)-piperidin-4-yl]-3-trifluoromethyl-benzoyl}-guanidine] |
| 36 nM | Cc1cc(C2CCN(C(=O)c3ccc(C#N)cc3)CC2)c(C(F)(F)F)cc1C(=O)NC(=N)N [N-{4-[1-(4-cyano-benzoyl)-piperidin-4-yl]-2-methyl-5-trifluoromethyl-benzoyl}-guanidine] |
| 27 nM | Cc1cc(C2CCN(C(=O)c3ccc(C#N)cc3)CC2)c(S(C)(=O)=O)cc1C(=O)NC(=N)N [N-{4-[1-(4-cyano-benzoyl)-piperidin-4-yl]-5-methanesulfonyl-2-methyl-benzoyl}-guanidine] |
| 39 nM | N#Cc1ccc(C(=O)N2CCC(c3ccc(C(=O)NC(=N)N)cc3C(F)(F)F)CC2)cn1 [N-{4-[1-(6-Cyano-pyridine-3-carbonyl)-piperidin-4-yl]-3-trifluoromethyl-benzoyl}-guanidine] |
| 21 nM | N=C(N)NC(=O)c1ccc(C2CCN(C(=O)c3ccc(O)nc3)CC2)c(C(F)(F)F)c1 [N-{4-[1-(6-Hydroxy-pyridine-3-carbonyl)-piperidin-4-yl]-3-trifluoromethyl-benzoyl}-guanidine] |
| 14 nM | N=C(N)NC(=O)c1ccc(C2CCN(C(=O)c3ccc(-n4ccnc4)nc3)CC2)c(C(F)(F)F)c1 [N-{4-[1-(6-Imidazol-1-yl-pyridine-3-carbonyl)-piperidin-4-yl]-3-trifluoromethyl-benzoyl}-guanidine] |
| 11 nM | N=C(N)NC(=O)c1ccc(C2CCN(C(=O)c3ccco3)C2)c(C(F)(F)F)c1 (stereo not drawn) [N-{4-[1-(Furan-2-carbonyl)-pyrrolidin-3-yl]-3-trifluoromethyl-benzoyl}-guanidine] |
| 17 nM | N=C(N)NC(=O)c1ccc(C2CCN(C(=O)c3cn4ccccc4n3)CC2)c(C(F)(F)F)c1 [N-{4-[1-(Imidazo[1,2-a]pyridine-2-carbonyl)-piperidin-4-yl]-3-trifluoromethyl-benzoyl}-guanidine] |
| 35 nM | N=C(N)NC(=O)c1ccc(C2CCN(C(=O)C3COCCN3)CC2)c(C(F)(F)F)c1 (stereo not drawn) [N-{4-[1-(Morpholine-3-carbonyl)-piperidin-4-yl]-3-trifluoromethyl-benzoyl}-guanidine] |
| 9 nM | N=C(N)NC(=O)c1ccc(C2CCN(C(=O)C3CCCCN3)CC2)c(C(F)(F)F)c1 (stereo not drawn) [N-{4-[1-(Piperidine-2-carbonyl)-piperidin-4-yl]-3-trifluoromethyl-benzoyl}-guanidine] |
| 17 nM | N=C(N)NC(=O)c1ccc(C2CCN(C(=O)C3CCCNC3)CC2)c(C(F)(F)F)c1 (stereo not drawn) [N-{4-[1-(Piperidine-3-carbonyl)-piperidin-4-yl]-3-trifluoromethyl-benzoyl}-guanidine] |
| 6 nM | N=C(N)NC(=O)c1ccc(C2CCN(C(=O)C3CCNCC3)CC2)c(C(F)(F)F)c1 [N-{4-[1-(Piperidine-4-carbonyl)-piperidin-4-yl]-3-trifluoromethyl-benzoyl}-guanidine] |
| 10 nM | N=C(N)NC(=O)c1ccc(C2CCN(C(=O)c3ccccn3)CC2)c(C(F)(F)F)c1 [N-{4-[1-(Pyridine-2-carbonyl)-piperidin-4-yl]-3-trifluoromethyl-benzoyl}-guanidine] |
| 10 nM | N=C(N)NC(=O)c1ccc(C2CCN(C(=O)c3cccnc3)CC2)c(C(F)(F)F)c1 [N-{4-[1-(Pyridine-3-carbonyl)-piperidin-4-yl]-3-trifluoromethyl-benzoyl}-guanidine] |
| 9 nM | N=C(N)NC(=O)c1ccc(C2CCN(C(=O)c3ccncc3)CC2)c(C(F)(F)F)c1 [N-{4-[1-(Pyridine-4-carbonyl)-piperidin-4-yl]-3-trifluoromethyl-benzoyl}-guanidine] |
| 19 nM | N=C(N)NC(=O)c1ccc(C2CCN(C(=O)c3ccncn3)CC2)c(C(F)(F)F)c1 [N-{4-[1-(Pyrimidine-4-carbonyl)-piperidin-4-yl]-3-trifluoromethyl-benzoyl}-guanidine] |
| 11 nM | N=C(N)NC(=O)c1ccc(C2CCN(C(=O)C3CCCN3)CC2)c(C(F)(F)F)c1 (stereo not drawn) [N-{4-[1-(Pyrrolidine-2-carbonyl)-piperidin-4-yl]-3-trifluoromethyl-benzoyl}-guanidine] |
| 5 nM | N=C(N)NC(=O)c1ccc(C2CCN(C(=O)C3CCNC3)CC2)c(C(F)(F)F)c1 (stereo not drawn) [N-{4-[1-(Pyrrolidine-3-carbonyl)-piperidin-4-yl]-3-trifluoromethyl-benzoyl}-guanidine] |
| 46 nM | N=C(N)NC(=O)c1ccc(C2CCN(C(=O)c3cccc4ncccc34)CC2)c(C(F)(F)F)c1 [N-{4-[1-(Quinoline-5-carbonyl)-piperidin-4-yl]-3-trifluoromethyl-benzoyl}-guanidine] |
| 18 nM | N=C(N)NC(=O)c1ccc(C2CCN(C(=O)c3cscn3)CC2)c(C(F)(F)F)c1 [N-{4-[1-(Thiazole-4-carbonyl)-piperidin-4-yl]-3-trifluoromethyl-benzoyl}-guanidine] |
| 25 nM | N=C(N)NC(=O)c1ccc(C2CCN(C(=O)c3ccc4cccnc4n3)CC2)c(C(F)(F)F)c1 [N-{4-[1-([1,8]Naphthyridine-2-carbonyl)-piperidin-4-yl]-3-trifluoromethyl-benzoyl}-guanidine] |
| 15 nM | COCC(=O)N1CCC(c2cc(C)c(C(=O)NC(=N)N)cc2S(C)(=O)=O)CC1 [N-{5-methanesulfonyl-4-[1-(2-methoxy-acetyl)-piperidin-4-yl]-2-methyl-benzoyl}-guanidine] |
| 16 nM | CCC(=O)N1CCC(c2cc(C)c(C(=O)NC(=N)N)cc2S(C)(=O)=O)CC1 [N-{5-methanesulfonyl-4-[1-propionyl-piperidin-4-yl]-2-methyl-benzoyl}-guanidine] |
